{
  "source": "patent US20210253651A1",
  "about": "“METHOD FOR PRODUCING ORGANIC COMPOUND-ENCAPSULATING FERRITIN” (Ajinomoto Co., Inc., priority 2018, published 2021)",
  "key": {"FTH ferritin [1]": {"biological_target": "T1, FTH ferritin (Homo sapiens, UniProt P02794)", "T1 construct": "made in house; host or cells: Escherichia coli BL21 (DE3), plasmid pET20-FTH", "T1 sequence (P02794 whole entry)": "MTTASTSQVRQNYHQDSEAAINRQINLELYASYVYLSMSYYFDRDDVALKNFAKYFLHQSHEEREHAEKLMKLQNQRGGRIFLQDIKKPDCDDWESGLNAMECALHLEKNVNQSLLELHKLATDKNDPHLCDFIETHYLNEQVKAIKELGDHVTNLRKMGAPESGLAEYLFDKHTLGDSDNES", "assay": "disassembly-reassembly process incorporation of DOX into FTH ferritin", "type": "physicochemical", "details": "standing 15 minutes, DOX 0.2 mg/L", "protocol": "Then, 10 μL of 1M Tris-HCl buffer (pH 9.0) was added for neutralization, and the resulting solution was left to stand for 5 to 120 minutes at room temperature. After the standing, 0.5 mL of water was added to the resulting solution. After the resulting solution was centrifuged (at 15,000 rpm for one minute), the supernatant was injected into the desalting column PD-10 (Sephadex G-25 filled product, GE Healthcare Inc.) equilibrated with 10 mM Tris-HCl buffer (pH 8) to separate the protein from a reagent that was not encapsulated. Whole amount (3.5 mL) of the resulting solution was concentrated to 0.1 mL by centrifugal ultrafiltration using Vivaspin 20-100K (GE Healthcare Inc.), and then the absorbances at 280 nm and 480 nm were measured using spectrophotometer (DU-800, Beckman Coulter Inc.)."}, "FTH ferritin [2]": {"biological_target": "T1, FTH ferritin", "assay": "estimation of state of DOX in FTH ferritin internal cavity", "details": "165 molecules of DOX per molecule of FTH ferritin, cavity volume 0.18 zL", "from_the_text": "Ferritin has a cage shape having a diameter of 12 nm, and the diameter of an internal cavity thereof is 7 nm. Ideally, the volume of the internal cavity is 0.18 zL (zL: Zepto little, 10 to the negative power of 21). […] In view of this, it is necessary to disassemble ferritin once to allow DOX to be released in advance for quantification of DOX incorporated in ferritin by means of spectroscopic evaluation."}, "FTL ferritin": {"biological_target": "T2, FTL ferritin (Homo sapiens, UniProt P02792)", "T2 construct": "made in house; host or cells: Escherichia coli BL21 (DE3), plasmid pET20-FTL", "T2 sequence (P02792 whole entry)": "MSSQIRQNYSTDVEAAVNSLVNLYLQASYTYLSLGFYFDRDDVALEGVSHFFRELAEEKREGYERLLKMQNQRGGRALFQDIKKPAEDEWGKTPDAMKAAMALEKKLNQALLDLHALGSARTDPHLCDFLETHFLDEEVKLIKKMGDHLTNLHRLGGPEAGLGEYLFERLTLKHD", "assay": "one-step incorporation of DOX into FTL ferritin", "type": "physicochemical", "details": "pH 8, 50° C., 60 minutes, DOX 0.3 mg/L", "protocol": "The incorporation of the reagent into L chain reagent was carried out using the one-step process. Total synthesis was carried out for a DNA encoding a human-derived ferritin L chain (FTL (SEQ ID NO: 2)) monomer. PCR was carried out using the synthesized DNA as a template as well as the following primers: 5′-[…]-3′ (SEQ ID NO: 234) and 5′-[…]-3′ (SEQ ID NO: 235). PCR was carried out using pET20 (Merck KGaA) as a template as well as the following primers: 5′-[…]-3′ (SEQ ID NO: 5) and 5′-[…]-3′ (SEQ ID NO: 6). The resulting PCR products were purified using Wizard DNA Clean-Up System (Promega Corporation), and then subjected to In-Fusion enzyme treatment at 50° C. for 15 minutes using In-Fusion HD Cloning Kit (Takara Bio Inc.) to construct an expression plasmid (pET20-FTL) carrying a gene encoding FTL monomer.\n(§1) DOX was mixed with 1 mL of 50 mM Tris-HCl buffer (pH 8) that contains each mutate FTL ferritin at a final concentration of 1 mg/mL, to achieve a final concentration of 0.3 mg/L, and then the resulting solutions were left to stand at 50° C. for 60 minutes. […] The concentration of contained protein was determined using the protein assay CBB solution (Nacalai Tesque, Inc.) as well as bovine albumin as a standard. The DOX concentration was determined based on analysis of the absorbance at 480 nm."}, "HER2a-FTH ferritin": {"biological_target": "T3, HER2a-FTH ferritin (Homo sapiens, UniProt P02794)", "T3 construct": "pET20-FTH carrying a DNA encoding a human-derived ferritin H chain monomer as a template; made in house; host or cells: Escherichia coli BL21 (DE3), plasmid pET20-HER2a-FTH", "T3 sequence (P02794 with tags, fused parts or gaps limits assumed)": "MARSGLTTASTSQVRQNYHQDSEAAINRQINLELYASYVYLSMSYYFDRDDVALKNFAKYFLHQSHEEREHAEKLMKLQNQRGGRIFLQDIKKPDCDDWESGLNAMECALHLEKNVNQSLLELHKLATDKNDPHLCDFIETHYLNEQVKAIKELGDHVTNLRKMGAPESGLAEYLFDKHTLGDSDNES", "assay": "one-step incorporation of DOX into HER2a-FTH ferritin", "type": "physicochemical", "details": "pH 9, 50° C., 60 minutes, DOX 0.3 mg/L", "protocol": "First, PCR was carried out using pET20-FTH carrying a DNA encoding a human-derived ferritin H chain monomer as a template as well as the following primers: 5′-[…]-3′(SEQ ID NO: 15) and 5′-[…]-3′(SEQ ID NO: 16) in order to obtain a DNA encoding the human-derived ferritin H chain (HER2a-FTH) monomer in which a cancer recognition peptide (HER2a: MARSGL (SEQ ID NO: 14); M Houimel et al., Int. J. Cancer 92, 748-755. (2001) which is incorporated herein by reference in its entirety) is inserted and fused at the N-terminus of the ferritin monomer. The resulting PCR products were purified using Wizard DNA Clean-Up System (Promega Corporation), and then treated with restriction enzymes, Dpnl and Ndel (Takara Bio Inc.) for self-ligation in order to construct an expression plasmid (pET20-HER2a-FTH) carrying a gene encoding HER2a-FTH. […]\nas §1, with “9)” for “8)”, “mutate” for “mutate FTL”"}, "[3]": {"assay": "pKa of the organic compound", "type": "physicochemical", "details": "average of plural pKa values", "from_the_text": "The pKa of the organic compound can be determined by a neutralization titration method (Kagaku Binran Kiso-hen I and II (Handbook of Chemistry, basic I and II) (Ver. 4) edited by The Chemical Society of Japan, Maruzen Publishing, 1993). […] When the organic compound has a single pKa value, the value is employed as the pKa of the organic compound."}},
  "note": "Where a name gives a salt, the structure may show the parent alone.",
  "data": [
    {"smiles": "COc1cccc2c1C(=O)c1c(O)c3c(c(O)c1C2=O)C[C@@](O)(C(=O)CO)C[C@@H]3OC1CC(N)C(O)C(C)O1", "note": "(some centres unmarked) [DOX, Doxorubicin hydrochloride]", "values": [
      {"measurement": "highest incorporation efficiency of the reagent", "setting": "FTH ferritin [1]", "value": "2 % (wt)"},
      {"measurement": "concentration of DOX in the internal cavity of ferritin", "setting": "FTH ferritin [2]", "value": 890, "unit": "g/L"},
      {"measurement": "incorporation efficiency of the reagent", "setting": "FTL ferritin", "value": "7.0 % (wt)"},
      {"measurement": "incorporation efficiency of the reagent", "setting": "HER2a-FTH ferritin", "value": "14.6 % (wt)"},
      {"measurement": "pKa", "setting": "[3]", "value": 8.42}
    ]}
  ]
}
